Data set [1] can be described thus: In vivo pharmacokinetic study of ponatinib in rats (plasma by HPLC-FLD, non-compartmental analysis). Set-up: species or system Male SD rats. Conditions: male, rat; for half-life: n = 3, read-out: T1/2 (terminal half-life) (converted). The protocol:
Animal experiments were conducted following the guidelines of the Korea Research Institute of Bioscience and Biotechnology (KRIBB-AEC-20309). Male SD rats (Koatech Inc.; Pyeongtaek, Gyeonggi, Republic of Korea) were acclimated to laboratory conditions for at least one week before experimentation. Animals were permitted ad libitum access to food and water, except during the 8 h fasting period before drug administration; however, water was continuously available.
Rats were administered ponatinib, prepared in a DMAC, cremophor EL, and 20 % HPβCD) in water (10:10:80) for intravenous (IV; 4 mg/kg) and oral administration (7.5 mg/kg). Blood samples (approximately 100 μL) were collected in lithium heparin-treated tubes through the jugular vein at 5, 15, and 30 min, and 1, 3, 6, 12, 24, 36, and 48 h for the IV group (n = 3) and at 30 min and 1, 2, 4, 6, 8, 12, 24, 36, and 48 h post-dose for the oral group (n = 3). The samples were centrifuged at 13,500×g for 10 min at 4 °C. Plasma was stored at −20 °C until analysis.
Plasma ponatinib concentrations were determined using the HPLC-FLD method developed in this study. Pharmacokinetic parameters were calculated using non-compartmental analysis via WinNonlin software (Pharsight Corporation, Mountain View, CA, USA). The key parameters were the area under the plasma concentration-time curve from zero to the last quantifiable time point (AUClast) and infinity (AUCinf), both of which were calculated using the linear trapezoidal method. The terminal half-life (T1/2) was derived from the elimination constant at the terminal phase (λ), and total clearance (CL) and the steady-state volume of distribution (Vss) were calculated. The maximum plasma concentration (Cmax) and time to reach Cmax (Tmax) were obtained directly from the plasma concentration-time graph. The oral bioavailability (F) was determined by dividing the dose-normalized AUCinf value following oral administration by that following IV administration.

The nature of data set [2]: Stability of ponatinib in rat plasma under storage conditions. The data set is classed as in vitro ADME. Conditions: for Stability (%, mean ± SD): n = 3. The protocol:
The stability of ponatinib in rat plasma was determined under various conditions using LQC and HQC samples in triplicate. The stability tests included bench-top exposure at room temperature for 2 h, long-term storage at −20 °C for 3 weeks, three freeze-thaw cycles, and 24-h autosampler storage at 10 °C. The stability of ponatinib was determined by comparing the measured concentrations with nominal values.

This is an account of results in article PMC11471595, “Quality by design-based approach for the development of an analytical method for quantifying ponatinib in rat plasma” (Heliyon, 2024).

Read-outs that look alike come from different tables or passages of the source.

What is called bioavailability is dose-corrected exposure relative to a reference, in per cent. In general, AUC(0-inf) refers to total exposure, with the tail of the curve extrapolated. Read a low AUC(0-inf) as less exposure. Usually AUC(0-t) stands for the area under the concentration-time curve up to a stated or last time point. The low end stands for low exposure, the high end for high exposure. The term clearance denotes a measure of how efficiently the substance is removed, as volume per time. A word on the Cmax: it is the peak of the concentration-time curve. For orientation: Tmax means the time from dosing to the highest level. With `Cc1ccc(C(=O)Nc2ccc(CN3CCN(C)CC3)c(C(F)(F)F)c2)cc1C#Cc1cnc2cccnn12` [ponatinib, Ponatinib], in data set [1] (SD, PO 7.5 mg/kg vs IV 4 mg/kg, dose-normalized AUCPO/AUCIV × 100, read-out: F (oral bioavailability)), the bioavailability is 48.2 ± 3.9%. In addition, the AUC(0-inf) was determined as 6140 ± 750 ng·h/mL in data set [1] (IV 4 mg/kg, mean ± SD, n = 3) and 5520 ± 280 ng·h/mL in data set [1] (PO 7.5 mg/kg, mean ± SD, n = 3). Moreover, the AUC(0-t) in data set [1] (IV 4 mg/kg, mean ± SD, n = 3) was determined as 6100 ± 730 ng·h/mL; in data set [1] (PO 7.5 mg/kg, mean ± SD, n = 3), 5400 ± 270 ng·h/mL. Besides, the clearance in data set [1] (IV 4 mg/kg, mean ± SD, n = 3, read-out: CL (total clearance) (converted)) was 10.9 mL/min/kg. Moreover, the half-life in data set [1] (IV 4 mg/kg, mean ± SD) was 6.84 ± 0.22 h; in data set [1] (PO 7.5 mg/kg, mean ± SD) it was 8.75 ± 0.67 h. Moreover, the Vd in data set [1] (IV 4 mg/kg, mean ± SD, n = 3, read-out: Vss (steady-state volume of distribution)) turned out to be 5.39 ± 0.2 L/kg. In data set [1] (PO 7.5 mg/kg, mean ± SD, n = 3), this compound came in with a Cmax of 308 ± 11 ng/mL. Further, the Tmax in data set [1] (PO 7.5 mg/kg, mean ± SD, n = 3) is 5.34 ± 2.31 h. Further, the “Stability (%, mean ± SD)” value is 95.2 ± 11.1% in data set [2] (processed rat plasma, autosampler (10 °C for 24 h), HQC 800 ng/mL); 93.4 ± 1.3% in data set [2] (processed rat plasma, autosampler (10 °C for 24 h), LQC 3 ng/mL); 91.5 ± 2.1% in data set [2] (rat plasma, bench top (room temperature for 2 h), HQC 800 ng/mL); 108 ± 6% in data set [2] (rat plasma, bench top (room temperature for 2 h), LQC 3 ng/mL); 92.1 ± 5.0% in data set [2] (rat plasma, freeze-thaw (3 cycles), HQC 800 ng/mL); 89.1 ± 7.0% in data set [2] (rat plasma, freeze-thaw (3 cycles), LQC 3 ng/mL). The “Stability (%, mean ± SD)” value turned out to be 96.4 ± 4.3% in data set [2] (rat plasma, long term (−20 °C for 3 weeks), HQC 800 ng/mL) and 93.1 ± 7.9% in data set [2] (rat plasma, long term (−20 °C for 3 weeks), LQC 3 ng/mL). The “Stability, range over LQC and HQC” value in data set [2] (rat plasma, room temperature for 2 h) is on record as 91.5 % to 108.
